# From US20110034507A1, “FARNESOID X RECEPTOR AGONISTS” (SMITHKLINE BEECHAM CORPORATION, priority 2007, published 2011)
# Target: T1, Human FXRα Ligand Binding Domain (Homo sapiens, UniProt Q96RI1)
# T1 construct: polyhistidine (pRSET-A vector leader) (N); made in house; host or cells: E. coli BL21 (DE3), pRSET-A vector
# T1 sequence (Q96RI1 237-472 isoform Q96RI1-2): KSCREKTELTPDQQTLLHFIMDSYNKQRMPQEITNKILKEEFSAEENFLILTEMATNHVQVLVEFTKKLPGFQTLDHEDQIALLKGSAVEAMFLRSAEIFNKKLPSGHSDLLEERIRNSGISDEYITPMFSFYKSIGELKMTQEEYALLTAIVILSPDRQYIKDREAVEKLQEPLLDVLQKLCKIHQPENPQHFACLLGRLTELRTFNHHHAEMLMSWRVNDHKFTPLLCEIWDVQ
# Experiment: FXR Cofactor Binding Assay (ligand mediated SRC-1 cofactor peptide interaction, time resolved fluorescence)
# Assay type: biochemical
# Conditions: FXRα LBD / SRC-1 (LCD2, 676-700) peptide, TRF; read-out: Activity (pEC50) (converted)
# From the text: Determination of a ligand mediated cofactor peptide interaction to quantify ligand binding to the nuclear receptor Farnesoid X Receptor (FXR). The method measures the ability of putative ligands to modulate the interaction between the purified bacterial expressed FXRα ligand binding domain (LBD) and a synthetic biotinylated peptide based on residues 676-700 of steroid receptor coactivator-1 (SRC-1) (LXXLL-containing domain-2 where L is the amino acid leucine and X indicates any other amino acid (LCD2), 676-700). The sequence of the SRC-1 peptide used is as published in Iannone, M. A., et al., 2001 Cytometry 44:326-337 where the N-terminus was biotinylated (B) and the C-terminus was amidated. Detection of the associated complex was measured by time resolved fluorescence (TRF). The purified LBD of FXR was labeled with biotin, then mixed with stoichiometric amounts of allophycocyanin (APC) labeled streptavidin (Molecular Probes). The biotinylated peptide was then mixed with a ½ stoichiometric amount of europium labeled streptavidin (Wallac Inc). Each was then blocked with a 5 fold excess of biotin and allowed to equilibrate for 15 min. Equimolar amounts of receptor and peptide were mixed together and were allowed to equilibrate for at least 30 min prior to the addition to either a variable or constant concentrations of the sample for which the affinity is to be determined. After equilibration, the time-resolved fluorescent signal was quantitated using a fluorescent plate reader. The affinity of the test compound was estimated from a plot of fluorescence versus concentration of test compound added.
# Ligands that promote the complex formation induce a concentration-dependent increase in time-resolved fluorescent signal.
# Human FXRα Ligand Binding Domain (FXRα LBD) was expressed in E. coli strain BL21 (DE3) as an amino-terminal polyhistidine tagged fusion protein. Expression was under the control of an isopropyl-β-D-thiogalactopyranoside (IPTG) inducible T7 promoter. DNA encoding this recombinant protein is subcloned into the pRSET-A expression vector (Invitrogen). The coding sequence of Human FXRα LBD was derived from Genbank accession number U 68233 (amino acids 237 to 472).
# Ten-liter fermentation batches were grown in Rich PO4 media with 0.1 mg/mL Ampicillin at 25° C. for 12 hours, cooled to 9° C. and held at that temperature for 36 hours to a density of OD600=14. At this cell density, 0.25 mM IPTG is added and induction proceeded for 24 hours at 9° C., to a final OD600=16. Cells are harvested by centrifugation (20 minutes, 3500×gravity, 4° C.), and concentrated cell slurries were stored in phosphate buffered saline (PBS) at […].
# Routinely, 30-40 g cell paste (equivalent to 2-3 liters of the fermentation batch) was resuspended in 200-250 mL Tris buffered saline (TBS), pH 7.2 (25 mM Tris-hydroxymethylamino methane (Tris), 150 mM sodium chloride). Cells were lysed by passing 3 times through a French Press and cell debris was removed by centrifugation (30 minutes, 20,000×gravity, 4° C.). The cleared supernatant was filtered through course pre-filters, and TBS, pH 7.2, 500 mM imidazole was added to obtain a final imidazole concentration of 50 mM. This lysate was loaded onto a column (6×8 cm) packed with Sepharose [Ni^++ charged] Chelation resin (Pharmacia) and pre-equilibrated with TBS pH 7.2/50 mM imidazole. After washing to baseline absorbance with equilibration buffer, the column was washed with one column volume of TBS pH 7.2 containing 90 mM imidazole. FXRα LBD was eluted directly with 365 mM imidazole. Column fractions were pooled and dialyzed against TBS, pH 7.2, containing 0.5 mM EDTA and 5 mM DTT. The dialyzed protein sample was concentrated using Centri-prep 10 K (Amicon) and subjected to size exclusion, using a column (3×90 cm) packed with Sepharose S-75 resin (Pharmacia) pre-equilibrated with TBS, pH 7.2, containing 0.5 mM ethylene diamine tetraacetic acid (EDTA) and 5 mM dithiothreitol (DTT).
row,SMILES,EC50
1,"CC(C)c1onc(COc2c(Br)cccc2Br)c1COc1ccc2c(ccn2Cc2cccc(C(=O)O)c2)c1 [Example 5, 3-{[5-({[3-{[(2,6-dibromophenyl)oxy]methyl}-5-(1-methylethyl)-4-isoxazolyl]methyl}oxy)-1H-indol-1-yl]methyl}benzoic acid]",102 to 1000 nM
2,"CC(C)c1onc(COc2c(Cl)cccc2Cl)c1COc1ccc2c(ccn2Cc2cccc(C(=O)O)c2)c1 [Example 15, 3-{[5-({[3-{[(2,6-Dichlorophenyl)oxy]methyl}-5-(1-methylethyl)-4-isoxazolyl]methyl}oxy)-1H-indol-1-yl]methyl}benzoic acid]",102 to 1000 nM
3,"CC(C)c1onc(-c2c(Cl)cccc2Cl)c1COc1ccc2sc(-c3cccc(C(=O)O)c3)cc2c1 [Example 54, 3-[5-({[3-(2,6-Dichlorophenyl)-5-(1-methylethyl)-4-isoxazolyl]methyl}oxy)-1-benzothien-2-yl]benzoic acid]",< 100 nM
4,"CC(C)c1onc(-c2c(Cl)cncc2Cl)c1COc1ccc2ccn(Cc3cccc(C(=O)O)c3)c2c1 [Example 8, 3-{[6-({[3-(3,5-dichloro-4-pyridinyl)-5-(1-methylethyl)-4-isoxazolyl]methyl}oxy)-1H-indol-1-yl]methyl}benzoic acid]",102 to 1000 nM
5,"CC(C)c1onc(-c2c(Cl)cccc2Cl)c1COc1ccc2cc(-c3cccc(NS(=O)(=O)C(F)(F)F)c3)ccc2c1 [Example 28, N-{3-[6-({[3-(2,6-dichlorophenyl)-5-(1-methylethyl)-4-isoxazolyl]methyl}oxy)-2-naphthalenyl]phenyl}-1,1,1-trifluoromethanesulfonamide]",102 to 1000 nM
6,"CC(C)c1onc(-c2c(Cl)cccc2Cl)c1COc1ccc2c(c1)CC(c1cccc(C(=O)O)c1)C2 (stereo not drawn) [Example 57, 3-[5-({[3-(2,6-Dichlorophenyl)-5-(1-methylethyl)-4-isoxazolyl]methyl}oxy)-2,3-dihydro-1H-inden-2-yl]benzoic acid]",102 to 1000 nM
7,"CC(C)c1onc(-c2ccccc2OC(F)(F)F)c1COc1ccc2c(ccn2Cc2cccc(C(=O)O)c2)c1 [Example 7, 3-[(5-{[(5-(1-Methylethyl)-3-{2-[(trifluoromethyl)oxy]phenyl}-4-isoxazolyl)methyl]oxy}-1H-indol-1-yl)methyl]benzoic acid]",102 to 1000 nM
8,"CC(C)c1onc(-c2c(Cl)cccc2Cl)c1COc1ccc2cc(-c3ccc(C(=O)O)cc3)ccc2c1 [Example 22, 4-[6-({[3-(2,6-Dichlorophenyl)-5-(1-methylethyl)-4-isoxazolyl]methyl}oxy)-2-naphthalenyl]benzoic acid]",102 to 1000 nM
9,"CC(C)c1onc(-c2c(Cl)cccc2Cl)c1COc1ccc2sc(-c3ccc(C(=O)O)cc3)cc2c1 [Example 16, 4-[5-({[3-(2,6-Dichlorophenyl)-5-(1-methylethyl)-4-isoxazolyl]methyl}oxy)-1-benzothien-2-yl]benzoic acid]",102 to 1000 nM
10,"CC(C)c1onc(-c2c(Cl)cccc2Cl)c1COc1ccc2c(ccn2C(=O)N2CC[C@@H](C(=O)O)C2)c1 [Example 53, (3R)-1-{[5-({[3-(2,6-Dichlorophenyl)-5-(1-methylethyl)-4-isoxazolyl]methyl}oxy)-1H-indol-1-yl]carbonyl}-3-pyrrolidinecarboxylic acid]",102 to 1000 nM
11,"CC(C)c1onc(-c2c(Cl)cccc2Cl)c1COc1ccc2c(ccn2Cc2nc(C(=O)O)co2)c1 [Example 47, 2-{[5-({[3-(2,6-Dichlorophenyl)-5-(1-methylethyl)-4-isoxazolyl]methyl}oxy)-1H-indol-1-yl]methyl}-1,3-oxazole-4-carboxylic acid]",102 to 1000 nM
12,"CC(C)c1onc(-c2c(Cl)cccc2Cl)c1COc1ccc2cc(-c3ccc(C(=O)O)nc3)ccc2c1 [Example 19, 5-[6-({[3-(2,6-Dichlorophenyl)-5-(1-methylethyl)-4-isoxazolyl]methyl}oxy)-2-naphthalenyl]-2-pyridinecarboxylic acid]",102 to 1000 nM
